# Measurements published in patent US20110263478A1, “SUR1 INHIBITORS FOR THERAPY” (priority 2008, published 2011).
# Legend:
# [1] = tested on: rodent models of ischemic stroke; conditions: cited from earlier work
# [2] = loading dose 10 μg/kg i.p. plus 200 ng/hr s.q.; cited from earlier work
# [3] = tested on: rats with subarachnoid hemorrhage (SAH); test: Rat SAH model: immunohistochemistry of inferomedial cortex and posterior cerebral artery; assay type: in vivo; conditions: 24 hr after SAH
# Procedure: Model of SAH. All surgical procedures were approved by the Institutional Animal Care and Use Committee of the University of Maryland. […] Fasted male Wistar rats (225-275 gm; Harlan, Indianapolis, Ind.) were anesthetized (ketamine, 60 mg/kg and xylazine, 7.5 mg/kg, intraperitoneally) and allowed to ventilate air spontaneously. Temperature was maintained at 37° C. using a heating pad regulated by a rectal temperature sensor (Harvard Apparatus, Holliston, M A). The laser Doppler flowmetry (LDF) probe (MoorLab, Moore Instruments, Sussex, UK) was affixed to the skull. The right carotid sheath was exposed through a ventral midline incision, the common, external and internal carotid arteries (CCA, ECA, ICA) were dissected, and the pterygopalatine artery was ligated. Typical blood gases (i-STAT, Heska Corp, Fort Collins, Colo.), sampled from the CCA before injury, were pO2>90 mm Hg, pCO2<47 mm Hg, and glucose 150-200 mg/dl.
# The model of SAH involved a single endovascular puncture of the ICA using a 4-0 filament sharpened at its tip, followed by reperfusion of the ICA (Schwartz et al. 2000). With temporary clips on the CCA and ICA, the ECA was divided proximal to the ligature, the 4-0 nylon filament was introduced through the stump of the ECA into the ICA, arterial puncture was produced at ˜19 mm under LDF monitoring, the filament was withdrawn, the ECA stump was ligated and flow was restored to the CCA/ICA. Unlike the widely used method in which a 3-0 filament is used to produce severe hemorrhage associated with high mortality, the method used here utilizing a 4-0 filament produced mild-tomoderate SAH associated with low mortality. We monitored rCBF using LDF to confirm the sharp drop after puncture and filament withdrawal, and to assure the full recovery in rCBF within 10-15 min of restoration of flow in the ICA, making ischemic injury less likely than in versions of the model in which the CCA is ligated.
# Controls received the same volume of vehicle in the same way. […] The osmotic mini-pumps delivered 0.5 μl/hr, yielding infusion doses of 200 ng/hr.
# Rats were euthanized 24 hr after induction of SAH. In some cases, fresh tissues were collected for immunoblot. In other cases, animals underwent perfusion fixation for immunohistochemistry or in situ hybridization.
# Immunohistochemistry. Cryosections (10 μm) were post-fixed with 4% formaldehyde and immunolabeled using standard techniques. After permeabilizing (0.3% Triton X-100 for 10 min), sections were blocked (2% donkey serum for 1 hr; Sigma D-9663), then incubated with primary antibody directed against: SUR1 (1:200; SC-5789; Santa Cruz Biotechnology); NeuN (1:100; MAB377; Chemicon, CA); GFAP (1:500; CY3 conjugated; C-9205; Sigma, St. Louis, Mo.); vonWillebrand factor (1:200; F3520, Sigma); TNFα (1:100; Santa Cruz); p65 (1:100; Santa Cruz); FITC-conjugated IgG (1:200; Santa Cruz); ZO-1 (1:100; Zymed Laboratories). Fluorescent-labeled, species appropriate secondary antibodies (Molecular Probes, OR) were used for visualization. Omission of primary antibody and competition with antigenic peptides, when available, were used as negative controls. Fluorescent signals were visualized using epifluorescence microscopy (Nikon Eclipse E1000).
# For quantitative immunohistochemistry, all sections were immunolabeled as a single batch, as previously described (Gerzanich et al. 2003). All images were collected using uniform parameters of magnification and exposure. Segmentation analysis was performed by computing a histogram of the pixel intensity for equal regions of interest (ROI) using IP Lab software, with the ROI confined to the 400 μm of parenchymal tissue dorsal to the pia of the inferomedial cortex ipsilateral to the SAH. For IgG, the overall pixel intensity of the ROI was determined and the background was subtracted. […]
# [4] = in humans; cited from earlier work
# [5] = tested on: rats with spinal cord injury (SCI); test: Rat cervical SCI model: hemorrhage / extravasated blood in cord; assay type: in vivo; conditions: 200 ng/h s.q.
# Procedure: Constant infusion of a low-dose of drug was used to achieve sustained occupancy of only high-affinity receptors.
# SCI injury model. This study was performed in accordance with the guidelines of the Institutional Animal Care and Use Committee. Adult female Long-Evans rats (275-350 gm) were anesthetized (Ketamine, 60 mg/kg plus Xylazine, 7.5 mg/kg, i.p.). The dura at C4-5 was exposed via a left hemilaminectomy. A hemi-cervical spinal cord contusion was created using a blunt force impactor (1.3-mm impactor head driven by a 10 gm weight dropped vertically 25 mm) (Soblo sky et al., 2001; Gensel et al., 2006). After SCI, animals were given 10 ml of glucose-free normal saline s.q. Rectal temperature was maintained at ˜37° C. using a servo-controlled warming blanket. Blood gases and serum glucose 10-15 min post-SCI were: pO2, 95±6 mm Hg; pCO2, 46±3 mm Hg; pH, 7.33±0.01; glucose 258±17 mg/dl in controls and pO2, 96±7 mm Hg; pCO2, 45±2 mm Hg; pH, 7.37±0.01; glucose 242±14 mg/dl in glibenclamide-treated animals.
# Drug delivery. […] During the course of the project, slightly different formulations of drug were used, with the best results obtained using stock solutions made by placing 50 mg (or 25 mg) of drug into 10 ml DMSO, and infusion solutions made by placing 400 μl (or 800 μl) stock into 4.6 ml (or 4.2 ml) unbuffered saline (0.9% NaCl) and adjusting the pH to ˜8.5 using 0.1 N NaOH.
# For in vivo gene suppression of SUR1, we used oligodeoxynucleotides that were phosphorothioated at 4 distal bonds to protect against endogenous nucleases (35). Within a few min of SCI, mini-osmotic pumps (Alzet 2002, 0.5 μl/h; Durect Corporation) with jugular vein catheters were implanted that delivered either scrambled sequence ODN (Scr-ODN) (5′-[…]-3′; SEQ ID NO:1) or antisense ODN (AS-ODN) (5′-[…]-3′; SEQ ID NO:2) (Yokoshiki et al., 1999) in PBS at a rate of 1 mg/rat/24 h.
# Tissue blood. Rats were sacrificed at various times after SCI (n=5-11 rats/group), were perfused with heparinized saline to remove intravascular blood, and 5-mm segments of cord encompassing the lesion were homogenized and processed as described (Choudhri et al., 1997).
# [6] = model of malignant cerebral edema
smiles,measurement,setting,value
COc1ccc(Cl)cc1C(=O)NCCc1ccc(S(=O)(=O)NC(=O)NC2CCCCC2)cc1 [glibenclamide],reduction of cerebral edema (excess water),[1]; [6],half
same,reduction of mortality,[1]; [6],half
same,reduction of lesion volume,[1]; stroke induced by thromboemboli,half
same,effect on serum glucose,[2],minimal effects
same,estimated serum concentration,[2],< 10 nM
same,protein (IgG) endocytosis by neurons,[3],essentially absent
same,caspase-3 activation in the PCA,[3]; 5 rats,absent in ⅘ rats and was minimal in the fifth
same,ZO-1 localization in PCA endothelium,[3]; vs vehicle,significantly reduced cytoplasmic localization and restored intercellular localization
same,caspase-3 activation in parenchymal tissues,[3]; vs vehicle,significantly reduced
same,"local inflammation (TNFα, p65 immunolabeling)",[3]; vs vehicle,significantly reduced
same,reactive astrocytosis (GFAP immunolabeling),[3]; vs vehicle,significantly reduced
same,volume of distribution,[4],0.2 L/kg
same,hemorrhage in cord on inspection,"[5]; 24 h post-SCI, vs vehicle",visibly less hemorrhage
same,extravasated blood in tissue homogenates,[5]; during the 24 h after SCI,little increase in extravasated blood
